Assay results as given in US20210085711A1 (Japan Tobacco Inc., priority 2017, published 2021).

Legend:
[1] = test system: patients with hypermenorrhea and/or patients with hypermenorrhea-associated gynecologic diseases (iron-deficiency anemia patients); assay: Phase II clinical trial of JTT-751: serum iron level; assay type: in vivo, human
Description: (§1) This test was a three-stage safety and efficacy clinical trial at multi-facilities. The first stage was a pre-observation period (Day −40 to Day −1), the second stage was an administration period (Day 1 to Day 48) (efficacy and safety evaluation period), and the third stage was a post-observation period (Day 49 to Day 63) (efficacy and safety evaluation period). The safety evaluation and efficacy evaluation were performed by multi-facility collaboration, placebo control, random allocation, double-blind trial, and parallel group comparison test.
(1) Japanese patients who are 20 or more and less than 65 years old at the time of agreement and can visit an outpatient clinic (2) Patients who have an Hb value (measured using HemoCue® Hb 201 DM analyzer in the institute of clinical practice) of 7.0 g/dL or more and less than 11.0 g/dL on both the observation start date and Week 0, and the difference between the two days is 1.0 g/dL or less (3) Patients with a TIBC of 360 μg/dL or more or a serum ferritin value of less than 12 ng/mL on the observation start date
The administration period of the trial drug is seven weeks which starts from the next day of the Week 0 visit to the day before the Week 7 visit, provided that the trial drug is not taken on the scheduled Week 3 visit.
(2) Subsidiary evaluation items 1) Erythrocyte-related examination values and amount of change from Week 0 at each observation date 2) Iron-related test values and amount of change from Week 0 at each observation date 3) Achievement rate of target Hb value (female; 12.0 g/dL or more, male; 13.0 g/dL or more) at each observation date 4) Achievement rate of 1.0 g/dL or more and achievement rate of 2.0 g/dL or more in Hb value improvement from Week 0 at each observation date 5) Average daily change of Hb value from Week 0 to each observation date
The blood hemoglobin value (Hb), the serum iron level, the serum ferritin value, the total iron-binding capacity (TIBC) and the transferrin saturation rate (TSAT), and the mean corpuscular volume (MCV) were each examined at the observation start date, Week 0, Week 3, Week 7, the end of administration and the consultation at nine weeks after Week 0; the hepcidin concentration (Hepcidin 25) and the serum soluble transferrin receptor concentration (sTfR) were each examined on Week 0, Week 3 and Week 7 and at the end of administration; and the C-terminal FGF23 value (cFGF23) and the intact FGF23 value (iFGF23) were each examined on Week 0 and Week 7 and at the end of administration.

[2] = test system: patients with hypermenorrhea-associated gynecologic diseases; assay: Phase II clinical trial of JTT-751: safety evaluation (harmful events) in combined use with medicaments affecting the amount of menstrual bleeding; assay type: in vivo, human; details: combined with carbazochrome sodium sulfonate, transamin or ethynylestradiol combinations
Description: as §1, with “test. […]” for “test.”
(1) Regarding the subjective symptoms and objective findings, when “expression of new abnormality” was observed between the start of the trial drug administration and nine weeks after Week 0 or at the end of examination after discontinuation as compared to before the start of the trial drug administration. […] (3) Regarding clinical examination, vital sign and standard 12-induced electrocardiogram, when the principal investigator or subinvestigator determined that an abnormality newly recognized between the start of the trial drug administration and nine weeks after Week 0 or at the end of examination after discontinuation, or aggravation of abnormality observed from before the start of the trial drug administration was a clinical problem. […]

[3] = 250 mg/day, 9 weeks after Week 0
[4] = 250 mg/day, End of administration
[5] = 250 mg/day, Week 3 (Week 0 not given)
[6] = 500 mg/day, 9 weeks after Week 0
[7] = 500 mg/day, End of administration
[8] = 500 mg/day, Week 3 (Week 0 not given)
[9] = 1000 mg/day, 9 weeks after Week 0
[10] = 1000 mg/day, End of administration
[11] = 1000 mg/day, Week 3 (Week 0 not given)
[12] = 1500 mg/day, 9 weeks after Week 0
[13] = 1500 mg/day, End of administration
[14] = 1500 mg/day, Week 3 (Week 0 not given)

In the case of Ferric citrate [JTT-751], the “Serum iron, Mean” value [1, 3] is reported as 14.3 µg/dL, the “Serum iron, Median” value [1, 3] is reported as 13.0 µg/dL and the “Serum iron, Mean” value [1, 4] is reported as 30.4 µg/dL. For the same substance, the “Serum iron, Median” value [1, 4] was 25.0 µg/dL, the “Serum iron, Mean” value [1, 5] was 19.9 µg/dL and the “Serum iron, Median” value [1, 5] was 18.5 µg/dL. For the same substance, the “Serum iron, Mean” value ([1]; 250 mg/day, Week 7) was 30.4 µg/dL, the “Serum iron, Median” value ([1]; 250 mg/day, Week 7) was 25.0 µg/dL and the “Serum iron, Mean” value [1, 6] was 24.6 µg/dL. For the same substance, the “Serum iron, Median” value [1, 6] was 18.0 µg/dL, the “Serum iron, Mean” value [1, 7] was 40.1 µg/dL and the “Serum iron, Median” value [1, 7] was 42.5 µg/dL. For the same substance, the “Serum iron, Mean” value [1, 8] was 29.6 µg/dL, the “Serum iron, Median” value [1, 8] was 13.5 µg/dL and the “Serum iron, Mean” value ([1]; 500 mg/day, Week 7) was 40.1 µg/dL. For the same substance, the “Serum iron, Median” value ([1]; 500 mg/day, Week 7) was 42.5 µg/dL, the “serum iron level on Week 3” value ([1]; 1000 mg administration group and 1500 mg administration group, Week 3) was “improved to a normal value” and the “Serum iron, Mean” value [1, 9] was 40.3 µg/dL. For the same substance, the “Serum iron, Median” value [1, 9] was 38.0 µg/dL, the “Serum iron, Mean” value [1, 10] was 48.3 µg/dL and the “Serum iron, Median” value [1, 10] was 52.0 µg/dL. For the same substance, the “Serum iron, Mean” value [1, 11] was 55.5 µg/dL, the “Serum iron, Median” value [1, 11] was 36.0 µg/dL and the “Serum iron, Mean” value ([1]; 1000 mg/day, Week 7) was 48.3 µg/dL. For the same substance, the “Serum iron, Median” value ([1]; 1000 mg/day, Week 7) was 52.0 µg/dL, the “Serum iron, Mean” value [1, 12] was 38.1 µg/dL and the “Serum iron, Median” value [1, 12] was 34.0 µg/dL. For the same substance, the “Serum iron, Mean” value [1, 13] was 54.4 µg/dL, the “Serum iron, Median” value [1, 13] was 46.0 µg/dL and the “Serum iron, Mean” value [1, 14] was 53.1 µg/dL. For the same substance, the “Serum iron, Median” value [1, 14] was 27.0 µg/dL, the “Serum iron, Mean” value ([1]; 1500 mg/day, Week 7) was 54.4 µg/dL and the “Serum iron, Median” value ([1]; 1500 mg/day, Week 7) was 46.0 µg/dL. For the same substance, the “serum iron level, increased to a normal value” ([1]; continuous administration, Week 0, Week 3 and Week 7) was “about 50 μg/dL” and the “harmful event caused by combined use with medicaments affecting the amount of menstrual bleeding” value [2] was “no harmful event caused by the combined use was reported”.
